Test results taken from US8658677B2, “Pyridyl-2-methylamino compounds, compositions and uses thereof” (Aria Neurosciences Inc., priority 2011, dated 2014).
“Also recorded” adds a separate entry of the source. Read-outs that look alike come from different tables or passages of the source.

Legend:
APP = test: 35S-Methionine pulse labeling of APP in 751APPSW CHO cells; assay type: cell-based, human
Protocol: D. APP was immunoprecipitated with 22C11 mAb against its N-terminus. Representative radiographs (B) and densitometric results averaged from three independent experiments are shown (A). […] Two sets of experiments were conducted using either actin or GAPDH as housekeeping genes.

APPSW/PS1dE9 mice [1] = test: In vivo toxicity during four-month treatment; conditions: 50 mg/kg/day ip, age six to ten months
Protocol: (§1) Female APPSW/PS1dE9 mice received ARN2966 (n=10) or Vehicle (n=15) from the age of six to ten months. ARN2966 (50 mg/kg/day) was given once a day by intraperitoneal injection. […] After conclusion of the experiments, samples of organs from ARN2966 and Vehicle treated animals were subjected to histopathological evaluation conducted by a veterinary pathologist. […] Signs of mild chronic peritonitis related to repeated daily intraperitoneal compound injection, however, were reported in both groups.

Aβ40 = Aβ40 secretion by primary hippocampal neurons derived from Tg2576 AD Tg mice; assay type: cell-based; conditions: 10 μM, primary neuronal cultures from Tg2576 mice
Protocol: In addition to studying the effect of ARN4261 and ARN2966 on Aβ oligomerization and fibrillization, we have explored their properties in respect to the modulation of Aβ production using CHO clones stably transfected with WT human APP751 and double Swedish APP751 mutant (KM670/671NL). The results in FIGS. 3(A) and 3(B) show inhibitory effect of ARN4261 and ARN2966 on secretion of Aβ40 and Aβ42 by 751APPSW CHO cells exposed to ARN compounds for 48 hr. Values are expressed as % of Aβ40 and Aβ42 levels in conditioned media (CM) of untreated cells. FIG. 3(C) Concentrations of Aβ40 and Aβ42 in 751APPSWCHO cell CM under increasing concentrations of ARN2966. 751APPSWCHO cells secrete Aβ40 and Aβ42 in proportions 9:1, akin to the proportions of Aβ peptides produced by neurons. […] Aβ40 and Aβ42 levels were determined using sandwich ELISA where C-terminal specific anti Aβ40 and Aβ42 mAbs were used as capture Abs and biotinylated 4G8 as the detection Ab. […] We also confirmed that ARN2966 inhibited secretion of Aβ by primary neuronal cultures derived from Tg2576 AD Tg mice.

APPSW/PS1dE9 mice [2] = test: Memory testing: object recognition and 8-armed radial arm maze; assay type: in vivo; conditions: 50 mg/kg/day ip, last three weeks of treatment
Protocol: as §1
P<0.05, unpaired, two-tailed t-test. […] One session is given per day. […] Starting from day five, vehicle treated APPSW/PS1dE9mice were consistently making more errors than ARN2966 treated APPSW/PS1dE9 and non-Tg littermates. One-way ANOVA p<0.001.
During the last three weeks of treatment, animals were behaviorally tested using object recognition paradigm and the 8-armed radial arm maze, both of which measure memory capability. […] However, vehicle treated APPSW/PS1dE9 mice were incapable of discriminating between familiar and novel objects, as is characteristic of their phenotype.

M17 neuroblastoma cells = test: Rescue of M17 neuroblastoma cells from death induced by MPP+ and H2O2 (MTT); assay type: cell-based
Source text: Cell viability was detected by MTT assay.

[3] = Pharmacokinetic characterization including BBB permeability; assay type: in vivo, CD-1 WT mice; conditions: for Brain Cmax / Cmax: mean ±SD; for F (fraction dose absorbed): accounted for po and iv dose difference; for half-life: read-out: Plasma t1/2 (converted)
Protocol: Pharmacokinetic characterization including BBB permeability of ARN2966 was performed in three months old, male CD-1 WT mice, which received a single oral (po; 25 mg/kg) or intravenous (iv; 5 mg/kg) dose of ARN2966 and were sacrificed 0.25, 0.5, 1, 2, 8, and 24 hr later (n=3 per time point). Plasma and brain concentration of ARN2966 were determined using liquid chromatography-mass spectrometry (LC/MS) (Table I). […] 64.2% of its orally administered dose was absorbed from the alimentary tract. […] This is because of the instability of —CH═N— bond. Therefore, we focused on PK/BBB permeability characterization of ARN2966, where —CH═N— bond was reduced to —CH2—NH—.

[4] = Analysis of chemical structure stability; assay type: physicochemical
Source text: This is because of the instability of —C═N— bond. Therefore we have synthesized a reduced version of ARN4261dubbed ARN2966 (2-[(pyridine-2-ylmethyl)-amino]-phenol, MW 200.2 Da, Log P 1.96).

[5] = male, CD-1, mouse, plasma, IV - 5 mg/kg, mice
[6] = male, CD-1, mouse, plasma, PO - 25 mg/kg, mice

Oc1ccccc1NCc1ccccn1 [ARN2966, 2-[(pyridine-2-ylmethyl)-amino]-phenol]
reduction of translation of APP (APP; 25 μM, 2 h 35S-Methionine pulse): 61.5%
incorporation of 35S-Methionine by APP during translation (APP; 751APPSW CHO cells): significantly reduced incorporation of 35S-Methionine by APP
translation of β-actin (APP; 751APPSW CHO cells): remained unaltered
body weight / weight gain (APPSW/PS1dE9 mice [1]): proper rate of age related weight gain
histopathological evaluation of organs (APPSW/PS1dE9 mice [1]): No signs of ARN2966 toxicity
physical appearance, unprovoked behavior, response to external stimuli (APPSW/PS1dE9 mice [1]): no noticeable changes in physical appearance, unprovoked behavior or response to external stimuli
lowering of Aβ40 concentration in the conditioned media (Aβ40): 61.4%
object recognition test (APPSW/PS1dE9 mice [2]): spent significantly more time exploring the novel object; also recorded: able to distinguish a novel object from the familiar object
radial arm maze, errors per session (APPSW/PS1dE9 mice [2]): made fewer errors than vehicle group
cell morphology by phase contrast microscopy (M17 neuroblastoma cells): restored normal cell morphology
rescue of cell death induced by H2O2 (M17 neuroblastoma cells; 300 μM H2O2, increasing concentrations, MTT): rescue M17 neuroblastoma cell death
rescue of cell death induced by MPP+ (M17 neuroblastoma cells; 0.5 mM MPP+, increasing concentrations, MTT): rescue M17 neuroblastoma cell death
Brain Cmax ([3]; IV - 5 mg/kg, mice, 5 mg/kg): 21.4 µg/kg
Brain Cmax ([3]; IV - 5 mg/kg, mice, listed as ARN 2966, 5 mg/kg): 21.4 ± 2.7 µg/kg
F (fraction dose absorbed) ([3]; PO - 25 mg/kg, 25 mg/kg): 64.2%
F (fraction dose absorbed) ([3]; PO - 25 mg/kg, listed as ARN 2966, 25 mg/kg): 64.20%
Brain Cmax ([3]; PO - 25 mg/kg, mice): 12.5 ± 2.3 µg/kg
maximal brain concentration ([3]; after iv dosing, 5 mg/kg): 0.11 µM
Tmax ([3]; male, CD-1, mouse, brain, IV - 5 mg/kg, mice, read-out: Brain Tmax): 15 min
Tmax ([3]; male, CD-1, mouse, brain, PO - 25 mg/kg, mice, read-out: Brain Tmax): 30 min
AUC(0-inf) [3, 5]: 1230 ng·h/mL
clearance [3, 5]: 67.8 mL/min/kg
Cmax [3, 5]: 1030 ± 440 ng/mL
Tmax ([3]; male, CD-1, mouse, plasma, IV - 5 mg/kg, mice, read-out: Plasma Tmax): 15 min
half-life [3, 5]: 368 min
Vd ([3]; male, CD-1, mouse, plasma, IV - 5 mg/kg, mice, read-out: Vz): 36 L/kg
AUC(0-inf) [3, 6]: 3950 ng·h/mL
Cmax [3, 6]: 2660 ± 382 ng/mL
Tmax ([3]; male, CD-1, mouse, plasma, PO - 25 mg/kg, mice, read-out: Plasma Tmax): 30 min
half-life [3, 6]: 215 min

Oc1ccccc1N=Cc1ccccn1 [ARN4261, 2-(Pyridin-2-ylmethyleneamino)-phenol]
chemical structure stability [4]: prone to self-decomposing
stability in acidic pH ([4]; acidic pH): easily degradable in acidic pH
